Numbers after ± are expanded uncertainties.

The conditions of series [1]: for vapor or sublimation pressure: Liquid, Gas chromatography.
Series [2] can be described thus: molar enthalpy of vaporization or sublimation. As to conditions: 298 K; Liquid; DSC.
Series [3] can be described thus: Molar enthalpy of transition or fusion. As to conditions: DSC.

With `CC(C)CN(CC(C)C)CC(C)C` [triisobutylamine], the “vapor or sublimation pressure” value is 0.037 ± 0.004 kPa in series [1] (283.15 K); 0.055 ± 0.006 kPa in series [1] (288.15 K); 0.079 ± 0.008 kPa in series [1] (293.15 K); 0.113 ± 0.011 kPa in series [1] (298.15 K); 0.159 ± 0.016 kPa in series [1] (303.15 K); 0.222 ± 0.022 kPa in series [1] (308.15 K). The “vapor or sublimation pressure” value in series [1] (313.15 K) is recorded as 0.306 ± 0.031 kPa. Further, the molar enthalpy in series [2] stood at 12.5 ± 1.1 kcal/mol.

On to `CCCN(CCC)CCC` [tripropylamine], for which the “vapor or sublimation pressure” value in series [1] (283.15 K) was 0.199 ± 0.02 kPa; in series [1] (288.15 K), 0.278 ± 0.028 kPa; in series [1] (293.15 K), 0.384 ± 0.038 kPa; in series [1] (298.15 K) it was 0.524 ± 0.052 kPa; in series [1] (303.15 K), 0.709 ± 0.071 kPa; in series [1] (308.15 K), 0.949 ± 0.095 kPa. For the same molecule, the “vapor or sublimation pressure” value in series [1] (313.15 K) was found to be 1.259 ± 0.13 kPa.

For `c1ccc(CN(Cc2ccccc2)Cc2ccccc2)cc1` [benzenemethanamine, N,N-bis(phenylmethyl)-], the “vapor or sublimation pressure” value in series [1] (283.15 K) turned out to be 7e-08 ± 2e-08 kPa; in series [1] (288.15 K), 1.4e-07 ± 2e-08 kPa; in series [1] (293.15 K), 2.7e-07 ± 4e-08 kPa; in series [1] (298.15 K), 5e-07 ± 6e-08 kPa; in series [1] (303.15 K), 9.3e-07 ± 1e-07 kPa; in series [1] (308.15 K), 1.7e-06 ± 1.8e-07 kPa. Moreover, in series [1] (313.15 K), the “vapor or sublimation pressure” value was 3.03e-06 ± 3.1e-07 kPa. For the same molecule, the Normal melting temperature in series [1] (Crystal 1, DTA) was determined as 92.5 ± 0.4 °C. In addition, the Triple point temperature in series [1] (Crystal 2, DTA) is recorded as 342.5 ± 0.9 K. In addition, the results for the “Molar enthalpy of transition or fusion” value in series [3] (Crystal 1) and in series [3] (Crystal 2) were 5.5 ± 0.127 kcal/mol and 0.264 ± 0.0502 kcal/mol, respectively. Further, the molar enthalpy in series [2] was 22.1 ± 0.837 kcal/mol.

For the molecule `CCCCCCCCCCCCCCN(C)C` [1-tetradecanamine, N,N-dimethyl-], the “vapor or sublimation pressure” value in series [1] (283.15 K) was 1.7e-05 ± 2e-06 kPa; in series [1] (288.15 K) it was 3.1e-05 ± 3e-06 kPa; in series [1] (293.15 K), 5.4e-05 ± 5e-06 kPa; in series [1] (298.15 K), 9.2e-05 ± 9e-06 kPa; in series [1] (303.15 K), 0.000153 ± 1.5e-05 kPa; in series [1] (308.15 K), 0.000253 ± 2.5e-05 kPa. In addition, the “vapor or sublimation pressure” value in series [1] (313.15 K) is given as 0.00041 ± 4.1e-05 kPa. Moreover, the molar enthalpy in series [2] was 18.5 ± 1 kcal/mol.

For the molecule `CCCCN(CCCC)CCCC` [tributylamine], the “vapor or sublimation pressure” value turned out to be 0.008 ± 0.001 kPa in series [1] (283.15 K); 0.013 ± 0.001 kPa in series [1] (288.15 K); 0.019 ± 0.002 kPa in series [1] (293.15 K); 0.028 ± 0.003 kPa in series [1] (298.15 K); 0.042 ± 0.004 kPa in series [1] (303.15 K); 0.06 ± 0.006 kPa in series [1] (308.15 K). Moreover, the “vapor or sublimation pressure” value in series [1] (313.15 K) is reported as 0.087 ± 0.009 kPa. Further, in series [2], the molar enthalpy worked out at 13.9 ± 0.98 kcal/mol.

Consider `C#CCN(C)[C@H](C)Cc1ccccc1` [(R)-N-methyl-N-(1-phenylpropan-2-yl)prop-2-yn-1-amine], for which the “vapor or sublimation pressure” value in series [1] (283.15 K) worked out at 0.0006 ± 0.0001 kPa; in series [1] (288.15 K) it was 0.001 ± 0.0001 kPa; in series [1] (293.15 K) it was 0.0016 ± 0.0002 kPa; in series [1] (298.15 K), 0.0025 ± 0.0003 kPa; in series [1] (303.15 K), 0.0038 ± 0.0004 kPa; in series [1] (308.15 K), 0.0058 ± 0.0006 kPa. Moreover, the “vapor or sublimation pressure” value in series [1] (313.15 K) turned out to be 0.0086 ± 0.0009 kPa. Moreover, the molar enthalpy in series [2] is 15.4 ± 1.12 kcal/mol.

Consider `CCN(CCCc1ccccc1)CCCc1ccccc1` [N-ethyl-3-phenyl-N-(3-phenylpropyl)propan-1-amine], for which the “vapor or sublimation pressure” value in series [1] (283.15 K) is 2e-07 ± 1e-07 kPa; in series [1] (288.15 K) it was 4e-07 ± 1e-07 kPa; in series [1] (293.15 K), 7e-07 ± 1e-07 kPa; in series [1] (298.15 K) it was 1.4e-06 ± 2e-07 kPa; in series [1] (303.15 K), 2.5e-06 ± 3e-07 kPa; in series [1] (308.15 K) it was 4.5e-06 ± 5e-07 kPa. In series [1] (313.15 K), the “vapor or sublimation pressure” value came to 7.8e-06 ± 8e-07 kPa. Further, in series [2], the molar enthalpy was 21.3 ± 0.669 kcal/mol.

As to `CCCCCCCCCCCCCCCCN(C)C` [1-hexadecanamine, N,N-dimethyl-], the “vapor or sublimation pressure” value in series [1] (283.15 K) turned out to be 2e-06 ± 1e-06 kPa; in series [1] (288.15 K) it was 3e-06 ± 1e-06 kPa; in series [1] (293.15 K) it was 6e-06 ± 1e-06 kPa; in series [1] (298.15 K) it was 1.1e-05 ± 1e-06 kPa; in series [1] (303.15 K) it was 1.9e-05 ± 2e-06 kPa; in series [1] (308.15 K), 3.2e-05 ± 3e-06 kPa. For the same molecule, the “vapor or sublimation pressure” value in series [1] (313.15 K) was found to be 5.5e-05 ± 6e-06 kPa. Further, the molar enthalpy in series [2] was 20.3 ± 2.87 kcal/mol.

As for `C[C@@H](Cc1ccccc1)N(C)Cc1ccccc1` [(S)-N-benzyl-N-methyl-1-phenylpropan-2-amine], the “vapor or sublimation pressure” value worked out at 8e-06 ± 1e-06 kPa in series [1] (283.15 K); 1.4e-05 ± 2e-06 kPa in series [1] (288.15 K); 2.4e-05 ± 2e-06 kPa in series [1] (293.15 K); 4e-05 ± 4e-06 kPa in series [1] (298.15 K); 6.7e-05 ± 7e-06 kPa in series [1] (303.15 K); 0.000111 ± 1.1e-05 kPa in series [1] (308.15 K). In series [1] (313.15 K), the “vapor or sublimation pressure” value amounted to 0.000179 ± 1.8e-05 kPa. In series [2], the molar enthalpy is 18.5 ± 0.55 kcal/mol.

Regarding `CCCCCCCCN(CCCCCCCC)CCCCCCCC` [trioctylamine], the “vapor or sublimation pressure” value is 2e-08 ± 1e-08 kPa in series [1] (283.15 K); 3e-08 ± 1e-08 kPa in series [1] (288.15 K); 7e-08 ± 2e-08 kPa in series [1] (293.15 K); 1.4e-07 ± 2e-08 kPa in series [1] (298.15 K); 2.8e-07 ± 4e-08 kPa in series [1] (303.15 K); 5.3e-07 ± 6e-08 kPa in series [1] (308.15 K). Further, the “vapor or sublimation pressure” value in series [1] (313.15 K) amounted to 1e-06 ± 1.1e-07 kPa. Moreover, the molar enthalpy in series [2] worked out at 23.9 ± 0.837 kcal/mol.

By vapor or sublimation pressure is commonly meant the pressure of vapour in equilibrium with the condensed phase.

Values taken from the NIST ThermoML archive (doi:10.1021/je500358r).
